Data from ChEMBL document CHEMBL1765027, “5'-Modified pyrimidine nucleosides as inhibitors of ribonuclease A” (Bioorg Med Chem, 2011).
pKi: −log10 of the molar value. Active and inactive are the calls of the source. No cut-off for these calls is given here.

Legend:
[1] = target: T1, Ribonuclease pancreatic (Bos taurus) (UniProt P61823); test: Inhibition of bovine pancreatic RNase A-mediated degradation of yeast tRNA assessed as residual tRNA band at 0.09 mM preincubated for 3 hrs measured after 30 mins of addition of tRNA using ethidium bromide staining by agarose gel based assay
T1 sequence (whole entry): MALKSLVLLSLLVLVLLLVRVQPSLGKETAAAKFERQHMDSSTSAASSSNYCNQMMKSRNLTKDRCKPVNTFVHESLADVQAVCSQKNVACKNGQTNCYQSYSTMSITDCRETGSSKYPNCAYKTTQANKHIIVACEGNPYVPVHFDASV

[2] = target: T1, Ribonuclease pancreatic (Bos taurus); test: Inhibition of bovine pancreatic RNase A-mediated degradation of yeast tRNA assessed as residual tRNA band at 0.18 mM preincubated for 3 hrs measured after 30 mins of addition of tRNA using ethidium bromide staining by agarose gel based assay
[3] = target: T1, Ribonuclease pancreatic (Bos taurus); test: Inhibition of bovine pancreatic RNase A-mediated degradation of yeast tRNA assessed as residual tRNA band at 0.27 mM preincubated for 3 hrs measured after 30 mins of addition of tRNA using ethidium bromide staining by agarose gel based assay
[4] = target: T1, Ribonuclease pancreatic (Bos taurus); test: Inhibition of bovine pancreatic RNase A ribonucleolytic activity assessed as reduction of yeast tRNA degradation at 0.27 mM preincubated for 2 hrs by precipitation assay
Ribonuclease pancreatic [5] = target: T2, Ribonuclease pancreatic (Bos taurus, UniProt P61823); test: Inhibition of bovine pancreatic RNase A using 2',3'-cCMP as a substrate by Dixon plot analysis
T2 sequence (P61823 whole entry): T1 sequence (whole entry)

Ribonuclease pancreatic [6] = target: T2, Ribonuclease pancreatic; test: Inhibition of bovine pancreatic RNase A using 2',3'-cCMP as a substrate by Lineweaver-Burk analysis
Ribonuclease pancreatic [7] = target: T2, Ribonuclease pancreatic; test: Inhibition of bovine pancreatic RNase A at pH 5.9 by spectrophotometric method

Row | Compound | Activity [1] | Activity [2] | Activity [3] | inhibition [4] | pKi (Ribonuclease pancreatic [5]) | pKi (Ribonuclease pancreatic [6]) | pKi (Ribonuclease pancreatic [7])
1 | Cc1cn([C@H]2C[C@H](O)[C@@H](CN3CCC(C(=O)O)CC3)O2)c(=O)[nH]c1=O | Active | Active | Active | 23% | 3.92 | 3.79 | –
2 | Nc1ncnc2c1ncn2[C@@H]1O[C@H](CO)[C@@H](OP(=O)(O)OC[C@H]2O[C@@H](n3ccc(=O)[nH]c3=O)C[C@@H]2OP(=O)(O)OP(=O)(O)O)[C@H]1O | – | – | – | – | – | – | 7.57
3 | Cc1cn([C@H]2C=C[C@@H](CN3CCC(C(=O)O)CC3)O2)c(=O)[nH]c1=O | Active | Active | Active | 14% | – | 3.60 | –
4 | Cc1cn([C@H]2C[C@@H](O)[C@@H](CN3CCC(C(=O)O)CC3)O2)c(=O)[nH]c1=O | Active | Active | Active | 18% | 3.74 | 3.64 | –
5 | O=C(O)C1CCN(C[C@H]2O[C@@H](n3ccc(=O)[nH]c3=O)[C@H](O)[C@@H]2O)CC1 | Active | Active | Active | 37% | 4.21 | 4.12 | –
